Results as given in ChEMBL document CHEMBL1135357, “Anti-MRSA activity of alkyl gallates” (2002).
Converted amounts (≈) assume the structure as drawn.

Columns and labels:
Format in all cases: functional
[1] = tested on: Staphylococcus aureus; experiment: Compound was tested for antibacterial activity against MRSA ATCC 33591, expressed as minimum bactericidal concentration (MBC)
[2] = tested on: Staphylococcus aureus; experiment: Compound was tested for antibacterial activity against MRSA ATCC 33591, expressed as minimum inhibitory concentration (MIC)
[3] = tested on: Bacillus subtilis; experiment: Compound was tested for antibacterial activity against Bacillus subtilis
[4] = tested on: Bacillus thuringiensis; experiment: Compound was tested for antibacterial activity against Bacillus thuringiensis
[5] = tested on: Corynebacterium ammoniagenes; experiment: Compound was tested for antibacterial activity against Brevibacterium ammoniagenes
[6] = tested on: Micrococcus luteus; experiment: Compound was tested for antibacterial activity against Micrococcus luteus
[7] = tested on: Cutibacterium acnes; experiment: Compound was tested for antibacterial activity against Propionibacterium acnes
[8] = tested on: Staphylococcus aureus; experiment: Compound was tested for antibacterial activity against Staphylococcus aureus
[9] = tested on: Staphylococcus aureus; experiment: Compound was tested for antibacterial activity against Staphylococcus aureus (MRSA)
[10] = tested on: Staphylococcus aureus; experiment: Compound was tested for antibacterial activity against MRSA ATCC 33591, expressed as aminimum inhibitory concentration (MIC)
[11] = tested on: Streptococcus mutans; experiment: Compound was tested for antibacterial activity against Streptococcus mutans

MIC [2] [µg/mL]	Compound	MBC [1] [µg/mL]	other results
25 (≈ 84.4 µM)	CCCCCCCCCOC(=O)c1cc(O)c(O)c(O)c1 [NONYL GALLATE]	50 (≈ 169 µM)	
25 (≈ 93.2 µM)	CCCCCCCOC(=O)c1cc(O)c(O)c(O)c1 [HEPTYL GALLATE]	100 (≈ 373 µM)	
50 (≈ 197 µM)	CCCCCCOC(=O)c1cc(O)c(O)c(O)c1 [HEXYL GALLATE]	200 (≈ 787 µM)	
50 (≈ 162 µM)	CCCCCCCCCCCOC(=O)c1cc(O)cc(O)c1	50 (≈ 162 µM)	

Further lines, the compound ahead of its results:

Compound	MIC [2] [µg/mL]	MBC [1] [µg/mL]	other results
CCCCCCCCCCCOC(=O)c1cc(O)c(O)c(O)c1 [UNDECYL GALLATE]	12.5 (≈ 38.5 µM)	25 (≈ 77.1 µM)	
CCCCCCCCOC(=O)c1cc(O)c(O)c(O)c1 [OCTYL_GALLATE]	25 (≈ 88.5 µM)	50 (≈ 177 µM)	
CCCCCCCCCCCCOC(=O)c1cc(O)c(O)c(O)c1 [DODECYL GALLATE]		25 (≈ 73.9 µM)	MBC [3]: 25 µg/mL (≈ 73.9 µM); MIC [3]: 25 µg/mL (≈ 73.9 µM); MIC [4]: 50 µg/mL (≈ 148 µM); MBC [5]: 25 µg/mL (≈ 73.9 µM); MIC [5]: 25 µg/mL (≈ 73.9 µM); MBC [6]: 25 µg/mL (≈ 73.9 µM); MIC [6]: 12.5 µg/mL (≈ 36.9 µM); MBC [7]: 6.25 µg/mL (≈ 18.5 µM); MIC [7]: 6.25 µg/mL (≈ 18.5 µM); MBC [8]: 25 µg/mL (≈ 73.9 µM); MIC [8]: 12.5 µg/mL (≈ 36.9 µM); MBC [9]: 25 µg/mL (≈ 73.9 µM); MIC [9]: 12.5 µg/mL (≈ 36.9 µM); MIC [10]: 12.5 µg/mL (≈ 36.9 µM); MBC [11]: 100 µg/mL (≈ 295 µM); MIC [11]: 100 µg/mL (≈ 295 µM)
CCCCCCCCCCCOC(=O)c1cccc(O)c1	50 (≈ 171 µM)	50 (≈ 171 µM)	
CCCOC(=O)c1cc(O)c(O)c(O)c1 [PROPYL GALLATE]	1600 (≈ 7540 µM)	3200 (≈ 15100 µM)	
CCCCCCCCCCOC(=O)c1cc(O)c(O)c(O)c1 [DECYL GALLATE]	12.5 (≈ 40.3 µM)	25 (≈ 80.5 µM)	
COc1cccc(OC)c1C(=O)N[C@@H]1C(=O)N2[C@@H]1SC(C)(C)[C@@H]2C(=O)O [METHICILLIN]	800 (≈ 2100 µM)	> 800	
